Earlier results as cited in US11214548B2, “Cannabinoid receptor modulators” (priority 2009, dated 2022).
Like-named read-outs stand apart in the source and are kept apart here.

Key:
acute and chronic pain = settings: animal studies; cited from earlier work
capsaicin-induced coughs [1] = settings: guinea pigs; cited from earlier work
EAE = EAE mouse model; cited from earlier work
EAU = EAU model in mice; cited from earlier work
[2] = system: bovine nasal cartilage explants; settings: bovine nasal cartilage explants in vitro; cited from earlier work
capsaicin-induced coughs [3] = settings: mice; cited from earlier work

Structure (SMILES) | effect against acute and chronic pain from chemical, mechanical, and thermal pain stimuli (acute and chronic pain) | number of capsaicin-induced coughs (capsaicin-induced coughs [1]) | leukocyte rolling and adhesion in the brain (EAE) | neuroprotection (EAU) | IL-1alpha-stimulated proteoglycan and collagen degradation [2] | number of capsaicin-induced coughs (capsaicin-induced coughs [3])
CCCCC/C=C\C/C=C\C/C=C\C/C=C\CCCC(=O)NCCO [anandamide] | effective | dose-dependent inhibition |  |  |  | 
Cc1c(C(=O)c2cccc3ccccc23)c2cccc3c2n1[C@H](CN1CCOCC1)CO3 [WIN 55212-2] | effective |  | significantly inhibits | significant neuroprotection | significantly inhibit | dose-dependent inhibition
